Measured values taken from patent publication US20240109855A1, “ANTI-QUORUM SENSING, ANTI-BIOFILM, AND INFLAMMATION ATTENUATING COMPOUNDS, COMPOSITIONS, AND METHODS OF USING SAME” (priority 2021, published 2024).
“Also recorded” adds a separate entry of the source.

What was measured:
NF-kB = test: NF-kB-luciferase reporter gene assay in L428 cells; format: cell-based, human; conditions: Table 6 summary; note: key: +: active; −: inactive
Procedure, shortened: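 L428 cells stably carrying NF-kB-luciferase reporter (5×10^5/well, triplicate) exposed 2 h to compounds or DMSO. Lysate luminescence normalized to Bradford protein and to vehicle, reported as % NF-kB activation; mean+SD, ≥3 repeats.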

[1] = system: QS genes lasR, lasI, rhlR and rhlI; test: RT-qPCR of P. aeruginosa (PA01) QS genes; format: cell-based; conditions: PA01 co-incubated seven hours
Protocol: (§1) FIGS. 13A-13C include vertical bar graphs showing the dose response inhibition of QS by PL-18. Bioluminescence indicator bacteria containing the P. aeruginosa reporter genes rhlRI (13A) and lasRI (13B) were used. The reporter bacteria were incubated with and range of PL-18 concentrations or DMSO, together with (+AI) or without (−AI) the proper auto-inducer. Bioluminescence was recorded at 15 min intervals for 10 hrs at 37° C. The maximum signal in each group was normalized to the inducer's bioluminescence maximum signal with 0.5% DMSO. Mean±SD, One-way ANOVA followed by Dunett's multiple comparisons test was performed (p-value ***≤0.0002). N=9 (triplicate samples in three independent experiments). (13C) RT-qPCR of P. aeruginosa (PA01) QS genes. PA01 was co-incubated with two doses of PL-18 for seven hours, lysed and total RNA was extracted and converted to cDNA followed by target genes qPCR amplification. N≥16, Mean±SD. Two-way ANOVA, 95% confidence interval.
(§2) The inhibition of rhlR-rhlI system was slightly better than the inhibition of lasR-lasI. […] The relative transcription levels of QS genes lasR, lasI, rhlR and rhlI, was determined by RT-qPCR.

rhamnolipids = test: Rhamnolipids secretion by P. aeruginosa; format: cell-based; conditions: cell-free culture medium, spectrometry
Protocol: (§3) FIGS. 14A-14B include vertical bar graphs showing that PL-18 inhibition effects on secretion of virulence factors by P. aeruginosa. (14A) Pyocyanin was extracted in the chloroform-HCl method and measured in a plate-reader at 380 nm. (14B) Determination of rhamnolipids content was measured at 570 nm of the cell-free supernatant after adjustment to pH-2. All results were normalized and compere to the control group-DMSO 0.16%. Mean±SD, One-way ANOVA followed by Dunett's multiple comparisons test (p-values *≤0.0332, ***≤0.0002). N=9 (in three independent experiments).
(§4) To test whether PL-18 inhibits virulence effectors secreted by P. aeruginosa, the relative abundance of the virulence factors pyocyanin and rhamnolipids in the bacterial cell-free culture medium was determined by spectrometry.

P. aeruginosa = test: Toxicity to P. aeruginosa (CFU scoring, kinetic O.D.600nm); format: cell-based; conditions: at the concentrations tested, data not shown
Protocol: The inventors also determined the toxicity of PL-18 to P. aeruginosa. Viability was tested by scoring CFUs of PL-18 treated P. aeruginosa cultures and bacterial growth was determined by incubation with PL-18 for kinetic O.D.600nm measurements.

[2] = system: quorum sensing (CV026 and KYC55); test: Quorum sensing inhibition, overall statement over the bio-reporter bacteria; format: cell-based
Procedure, shortened: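 Compounds (20 μl of 40 mM acetonitrile stock) were spotted on TLC plates overlaid with reporter in soft agar: CV026 with 500 nM 3-oxo-C6 (purple pigment) or KYC55 with 5 nM 3-oxo-C8 and 60 μg/ml X-gal (blue pigment). After overnight incubation at 30 °C, the pigment-free inhibition zone was measured.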

[3] = system: Chromobacterium violaceum (CV026); test: Quorum sensing inhibition test with bio-reporter CV026 (TLC overlay); format: cell-based; for Degree of quorum sensing inhibition (QSI), CV026: key: −: no inhibition; +: low inhibition; ++: medium inhibition; +++: strong inhibition
Procedure, shortened: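 Compounds (40 mM in acetonitrile, 20 μl) were spotted on TLC and overlaid with soft agar reporter cultures, incubated overnight at 30 °C. CV026 was in LB with 500 nM 3-oxo-C6 (purple pigment), and KYC55 was in AT medium with 5 nM 3-oxo-C8 and 60 μg/ml X-gal (blue). Inhibition zone diameter was measured.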

pyocyanin = test: Pyocyanin secretion by P. aeruginosa; format: cell-based; conditions: cell-free culture medium, spectrometry
Protocol: as §3, §4

lasR-lasI = test: Bioluminescence QS reporter bacteria, lasRI; format: cell-based, P. aeruginosa; conditions: Pseudomonas aeruginosa
Protocol: as §1, §2

`COc1cc(/C=C/C(=O)N2CCC=CC2=O)cc(O)c1O` [PL-18, Dihydroxy piperlongumine] was tested, and the Anti-inflammatory (NF-kB) was “+”, the “Relative transcription levels of QS genes lasR, lasI, rhlR and rhlI” value [1] was “strongly decreased” and the “Inhibition of rhamnolipids secretion” value (rhamnolipids) was “inhibit both virulence factors in a dose dependent manner; also recorded: effectively attenuate”. For the same molecule, the “Effect on P. aeruginosa growth (O.D.600nm)” value (P. aeruginosa) was “did not affect P. aeruginosa growth”, the “Toxicity to P. aeruginosa (viability, CFUs)” value (P. aeruginosa) was “non-toxic” and the QSI ([2]; Table 6 summary) was “+”. For the same molecule, the “QSI activity overall, in words” value ([2]; running text) was “moderate”, the “Degree of quorum sensing inhibition (QSI), CV026” value ([3]; Table 2, piperlongumine derivatives) was “++” and the “QSI activity against CV026, in words” value ([3]; running text) was “moderate activity”. For the same molecule, the “Inhibition of pyocyanin secretion” value (pyocyanin) was “inhibit both virulence factors in a dose dependent manner; also recorded: effectively attenuate”, the IC50 (lasR-lasI; read-out: IC50, lasR-lasI) was 22 µM and the inhibition at 160 µM (lasR-lasI; read-out: lasR-lasI inhibition) was 76.8%.
